Laboratory results reported in ChEMBL document CHEMBL4261619, “Sentulic acid isolated from Sandoricum koetjape Merr attenuates lipopolysaccharide and interferon gamma co-stimulated nitric oxide production in murine macrophage RAW264 cells” (Bioorg Med Chem Lett, 2018).
Active and inactive are the calls of the source. The rule behind the calls is not given here.

How the values were obtained:
Type in all cases: cell-based
[1] = molecular target: T1, Toll-like receptor 4 (Mus musculus) (UniProt Q9QUK6); experiment: Inhibition of LPS binding to TLR4 in IFNgamma-stimulated mouse RAW264.7 cells assessed as effect on ratio of phosphorylated p38 to total p38 at 100 uM measured after 60 mins by Western blot analysis relative to beta-actin (reference value: 1.9)
T1 sequence (whole entry): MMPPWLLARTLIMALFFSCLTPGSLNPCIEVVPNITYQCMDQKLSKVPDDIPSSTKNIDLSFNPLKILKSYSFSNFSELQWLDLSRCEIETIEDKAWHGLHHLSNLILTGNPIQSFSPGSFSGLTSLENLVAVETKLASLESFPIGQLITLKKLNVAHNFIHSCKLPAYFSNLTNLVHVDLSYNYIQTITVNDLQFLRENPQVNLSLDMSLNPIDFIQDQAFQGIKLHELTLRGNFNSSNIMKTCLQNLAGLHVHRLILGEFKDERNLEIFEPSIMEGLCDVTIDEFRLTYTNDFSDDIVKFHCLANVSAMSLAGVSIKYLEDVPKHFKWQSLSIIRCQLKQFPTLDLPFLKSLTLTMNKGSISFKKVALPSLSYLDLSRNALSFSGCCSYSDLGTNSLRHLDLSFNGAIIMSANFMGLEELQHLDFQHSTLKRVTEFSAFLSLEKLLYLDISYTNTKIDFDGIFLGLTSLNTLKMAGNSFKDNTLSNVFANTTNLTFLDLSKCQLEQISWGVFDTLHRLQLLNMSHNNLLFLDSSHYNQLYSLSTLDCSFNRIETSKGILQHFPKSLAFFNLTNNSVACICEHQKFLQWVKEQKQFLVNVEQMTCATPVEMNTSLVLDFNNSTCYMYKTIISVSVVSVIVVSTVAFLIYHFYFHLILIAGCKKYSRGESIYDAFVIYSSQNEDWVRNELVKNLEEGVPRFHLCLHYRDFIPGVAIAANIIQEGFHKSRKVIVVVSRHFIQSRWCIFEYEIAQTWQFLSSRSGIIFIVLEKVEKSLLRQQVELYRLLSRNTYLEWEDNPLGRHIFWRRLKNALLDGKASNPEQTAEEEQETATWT

[2] = molecular target: T1, Toll-like receptor 4 (Mus musculus); experiment: Inhibition of LPS binding to TLR4 in IFNgamma-stimulated mouse RAW264.7 cells assessed as effect on ratio of phosphorylated JNK to total JNK at 100 uM measured after 15 mins by Western blot analysis relative to beta-actin (reference value: 2)
[3] = molecular target: T1, Toll-like receptor 4 (Mus musculus); experiment: Inhibition of LPS binding to TLR4 in IFNgamma-stimulated mouse RAW264.7 cells assessed as effect on ratio of phosphorylated NFkappaB to total NFkappaB at 100 uM measured after 60 mins by Western blot analysis relative to beta-actin (reference value: 1)
[4] = molecular target: T1, Toll-like receptor 4 (Mus musculus); experiment: Inhibition of LPS binding to TLR4 in IFNgamma-stimulated mouse RAW264.7 cells assessed as suppression of iNOS mRNA expression at 100 uM by qRT-PCR analysis
[5] = molecular target: T1, Toll-like receptor 4 (Mus musculus); experiment: Inhibition of LPS binding to TLR4 in IFNgamma-stimulated mouse RAW264.7 cells assessed as reduction in COX2 expression at 100 uM by Western blot analysis
[6] = molecular target: T1, Toll-like receptor 4 (Mus musculus); experiment: Inhibition of LPS binding to TLR4 in IFNgamma-stimulated mouse RAW264.7 cells assessed as effect on ratio of phosphorylated p38 to total p38 at 100 uM measured after 120 mins by Western blot analysis relative to beta-actin (reference value: 2.2)
[7] = molecular target: T1, Toll-like receptor 4 (Mus musculus); experiment: Inhibition of LPS binding to TLR4 in IFNgamma-stimulated mouse RAW264.7 cells assessed as effect on ratio of phosphorylated ERK to total ERK at 100 uM measured after 60 mins by Western blot analysis relative to beta-actin (reference value: 3)
[8] = molecular target: T1, Toll-like receptor 4 (Mus musculus); experiment: Inhibition of LPS binding to TLR4 in IFNgamma-stimulated mouse RAW264.7 cells assessed as suppression of TNFalpha mRNA expression at 100 uM by qRT-PCR analysis
[9] = molecular target: T1, Toll-like receptor 4 (Mus musculus); experiment: Inhibition of LPS binding to TLR4 in IFNgamma-stimulated mouse RAW264.7 cells assessed as effect on ratio of phosphorylated JNK to total JNK at 100 uM measured after 30 mins by Western blot analysis relative to beta-actin (reference value: 2.3)
[10] = molecular target: T1, Toll-like receptor 4 (Mus musculus); experiment: Inhibition of LPS binding to TLR4 in IFNgamma-stimulated mouse RAW264.7 cells assessed as effect on ratio of phosphorylated NFkappaB to total NFkappaB at 100 uM measured after 120 mins by Western blot analysis relative to beta-actin (reference value: 1.2)
[11] = molecular target: T1, Toll-like receptor 4 (Mus musculus); experiment: Inhibition of LPS binding to TLR4 in IFNgamma-stimulated mouse RAW264.7 cells assessed as reduction in nitric oxide production pretreated for 2 hrs followed by LPS/IFNgamma stimulation and measured after 24 hrs
[12] = molecular target: T1, Toll-like receptor 4 (Mus musculus); experiment: Inhibition of LPS binding to TLR4 in IFNgamma-stimulated mouse RAW264.7 cells assessed as effect on ratio of phosphorylated TAK1 to total TAK1 at 100 uM measured after 120 mins by Western blot analysis relative to beta-actin (reference value: 3)
RAW264.7 [13] = experiment: Inhibition of IFNgamma binding to IFNGR in LPS-stimulated mouse RAW264.7 cells assessed as effect on ratio of phosphorylated Stat1 to total Stat1 at 100 uM measured after 60 mins by Western blot analysis relative to beta-actin (reference value: 4.1)
[14] = molecular target: T1, Toll-like receptor 4 (Mus musculus); experiment: Displacement of Alexa fluor 488-conjugated LPS from TLR4 in mouse RAW264.7 cells at 100 uM pretreated for 2 hrs followed by Alexa fluor 488-conjugated LPS addition and measured after 30 mins by Hoechst 33342 staining based assay relative to control
[15] = molecular target: T1, Toll-like receptor 4 (Mus musculus); experiment: Inhibition of LPS binding to TLR4 in IFNgamma-stimulated mouse RAW264.7 cells assessed as suppression of NFkappaB nuclear translocation
[16] = molecular target: T1, Toll-like receptor 4 (Mus musculus); experiment: Inhibition of LPS binding to TLR4 in IFNgamma-stimulated mouse RAW264.7 cells assessed as effect on ratio of phosphorylated ERK to total ERK at 100 uM measured after 30 mins by Western blot analysis relative to beta-actin (reference value: 0.8)
RAW264.7 [17] = experiment: Inhibition of IFNgamma binding to IFNGR in LPS-stimulated mouse RAW264.7 cells assessed as effect on ratio of phosphorylated Stat1 to total Stat1 at 100 uM measured after 30 mins by Western blot analysis relative to beta-actin (reference value: 1.9)
[18] = molecular target: T1, Toll-like receptor 4 (Mus musculus); experiment: Inhibition of LPS binding to TLR4 in IFNgamma-stimulated mouse RAW264.7 cells assessed as effect on ratio of phosphorylated ERK to total ERK at 100 uM measured after 15 mins by Western blot analysis relative to beta-actin (reference value: 0.8)
[19] = molecular target: T1, Toll-like receptor 4 (Mus musculus); experiment: Inhibition of LPS binding to TLR4 in IFNgamma-stimulated mouse RAW264.7 cells assessed as effect on ratio of phosphorylated NFkappaB to total NFkappaB at 100 uM measured after 30 mins by Western blot analysis relative to beta-actin (reference value: 2.7)

fold change (FC) [1]: 2
fold change (FC) [2]: 1
fold change (FC) [3]: 1
inhibition [4]: Active
inhibition [5]: inactive
fold change (FC) [6]: 1.3
fold change (FC) [7]: 2.2
inhibition [8]: Active
fold change (FC) [9]: 1.5
fold change (FC) [10]: 1
inhibition [11]: Dose-dependent effect
fold change (FC) [12]: 0.9
inhibition [14]: 43%
inhibition [15]: Active
fold change (FC) [16]: 0.7
fold change (FC) [18]: 0.8
fold change (FC) [19]: 1.6
SMILES: C=C(C)[C@@H]1CC[C@]2(C)[C@H](CC=C3[C@@H]4CC(C)(C)CC[C@]4(C)CC[C@]32C(=O)O)[C@@]1(C)CCC(=O)O
fold change (FC) (RAW264.7 [13]): 1.8
fold change (FC) (RAW264.7 [17]): 1.2
